Reference: the NIST ThermoML archive (doi:10.1021/je100145f)

Experiment: molar heat capacity at constant pressure; xn = mol fraction of the nth substance listed
Conditions: 101 kPa, Liquid, Small sample (50 mg) DSC

N#Cc1ccccc1 [benzonitrile] + CCCCCCCCC
molar heat capacity at constant pressure [J/K/mol]
Conditions	285.15 K	288.15 K	293.15 K	298.15 K	303.15 K	308.15 K	313.15 K
x1 = 0.0239	275.6	276.8	278.87	280.98	283.18	285.48	287.76
x1 = 0.0499	272.83	274.01	276.02	278.11	280.26	282.5	284.75
x1 = 0.0989	267.94	269.06	270.98	272.97	275.01	277.16	279.34
x1 = 0.1984	258.53	259.47	261.13	262.87	264.72	266.66	268.65
x1 = 0.2543	253.53	254.27	255.7	257.26	258.97	260.77	262.65
x1 = 0.3	249.7	250.12	251.28	252.66	254.22	255.89	257.63
x1 = 0.4004	242.4	241.04	241.24	242.16	243.44	244.94	246.59
x1 = 0.4968	234.22	230.79	230.43	231.16	232.33	233.66	235.16
x1 = 0.6	217.32	216.76	217.29	218.27	219.53	220.89	222.37
x1 = 0.6996	202.24	202.88	204.1	205.37	206.74	208.21	209.67
x1 = 0.8	189.2	189.97	191.28	192.63	194	195.39	196.84
x1 = 0.9	176.74	177.48	178.75	180.02	181.35	182.67	184.01
x1 = 0.9498	170.45	171.18	172.4	173.65	174.93	176.22	177.48
x1 = 0.9805	166.46	167.19	168.41	169.64	170.89	172.18	173.44
x1 = 1	163.9	164.63	165.82	167.06	168.32	169.59	170.87

N#Cc1ccccc1 [benzonitrile] + CCCCCCCC
molar heat capacity at constant pressure [J/K/mol]
Conditions	283.15 K	288.15 K	293.15 K	298.15 K	303.15 K	308.15 K	313.15 K	318.15 K
x1 = 0.0219	246.32	248.19	250.11	252.1	254.14	256.24	258.38	260.56
x1 = 0.0576	243.69	245.52	247.38	249.32	251.3	253.34	255.43	257.56
x1 = 0.1021	240.66	242.38	244.17	246	247.92	249.87	251.88	253.94
x1 = 0.1999	234.51	235.9	237.41	239.04	240.74	242.5	244.34	246.23
x1 = 0.2998	229.04	229.53	230.52	231.82	233.28	234.82	236.47	238.12
x1 = 0.4002	224.38	222.59	223.06	224.03	225.26	226.66	228.12	229.73
x1 = 0.4637	219.83	217.33	217.69	218.58	219.78	221.13	222.51	–
x1 = 0.5001	215.93	213.9	214.32	215.28	216.5	217.77	219.26	220.74
x1 = 0.6001	203.15	203.61	204.57	205.76	207.09	208.41	209.85	211.38
x1 = 0.7003	192.17	193.38	194.65	195.97	197.33	198.73	200.16	201.61
x1 = 0.7999	182.68	183.92	185.2	186.53	187.88	189.25	190.63	192.02
x1 = 0.9	173.26	174.47	175.71	176.98	178.27	179.58	180.92	182.23
x1 = 0.95	168.41	169.62	170.83	172.09	173.36	174.65	175.96	177.25
x1 = 0.9801	165.44	166.62	167.83	169.07	170.34	171.61	172.89	174.17
x1 = 1	163.43	164.61	165.82	167.06	168.32	169.59	170.87	172.15
